Laboratory results from US12491252B2, “Substituted 3-amino-5-phenylbenzamide compounds as covalent inhibitors of enhancer zeste homolog 2 (EZH2) and proteolysis-targeting chimeric derivatives thereof (PROTACs) that induce degradation of EZH2” (Northwestern University, priority 2021, dated 2025).
Read-outs that look alike come from different tables or passages of the source.

Legend:
H3K27me3 = experiment: Western blot of H3K27me3 levels in C4-2B cells; type: cell-based; conditions: FIG. 14, 10 μM for 6 days
EZH2 [1] = molecular target: T1, EZH2 (Homo sapiens, UniProt Q15910); experiment: Western blot of EZH2 with esiRNA knockdown of VHL or siRNA control; type: cell-based; conditions: FIG. 16, duplicate
Description: FIG. 16. Cells were treated with indicated compounds with either esiRNA knockdown of VHL or siRNA control (no EZH2 knockdown) and blotted for EZH2 and VHL. […] Experiment was run in duplicate with both replicates shown on the left and right sides.

LNCaP cells [2] = experiment: Live imaging cell proliferation of LNCaP cells; type: cell-based; conditions: FIG. 17A, monitored over 168 hours
Text: FIG. 17A-17B. (FIG. 17A) Live imaging cell proliferation of LNCaP cells. […] DMSO is set as the negative control. […] (FIG. 17B) Colony assays using LnCaP cells after treatment with the indicated compounds for 7 days.

LNCaP cells [3] = experiment: WST cell proliferation/viability assay in LNCaP cells; type: cell-based
Description: FIG. 19A-19B. (FIG. 19A) WST cell proliferation assay of indicated compounds in LNCaP cells. […] (FIG. 19B) Effects of indicated compounds on EZH2, AR, and FOXA1 by western blot at 1 μM in LNCaP cells.
(§1) Cell proliferation was measured using WST-1 Kit (Clontech) according to manufacturer's protocol.

C4-2B cells [4] = experiment: Imaging of C4-2B cells (cell density); type: cell-based; conditions: FIG. 21, 12 days' treatment
Text: FIG. 21. Imaging of C4-2B cells after 12 days' treatment with the indicated compounds.

EZH2 [5] = molecular target: T1, EZH2; experiment: Western blot of EZH2 protein in DU-145 cells; conditions: FIG. 27, 6 days treatment
Description: (Upper right western blot) Western blot analysis of EZH2 protein in DU-145 cells after 6 days treatment.

EZH2 [6] = experiment: Western blot of EZH2 in SU-DHL4 cells; type: cell-based; conditions: FIG. 33, 48 hours
EZH2 [7] = molecular target: T1, EZH2; experiment: Western blot of EZH2 protein in PC3 cells; conditions: FIG. 26, 6 days treatment
Description: (Upper right western blot) Western blot analysis of EZH2 protein in PC3 cells after 6 days treatment.

SUZ12 [8] = experiment: Western blot of SUZ12 in SU-DHL4 cells; type: cell-based; conditions: FIG. 33, 48 hours
Description: (§2) FIG. 33. […] Cell were treated for 48 hours with the indicated concentrations of compounds.

EED [9] = experiment: Western blot of EED in SU-DHL4 cells; type: cell-based; conditions: FIG. 33, 48 hours
Description: as §2

C4-2B cells [10] = experiment: Colony assay using C4-2B cells; type: cell-based; conditions: FIG. 20B, treatment for 7 days
Description: (§3) FIG. 20A-20B. (FIG. 20A) Live imaging cell proliferation of C4-2B cells. Cells were treated with indicated compounds and monitored over 168 hours for proliferation by phase object confluence. DMSO is set as the negative control. […] (FIG. 20B) Colony assays using C4-2B cells after treatment with the indicated compounds for 7 days.

lymphoma cell lines = experiment: WST-1 cell proliferation in multiple lymphoma cell lines; type: cell-based; conditions: WST-1 Kit
Description: as §1

EED [11] = experiment: Western blot of EED in SU-DHL6 cells; type: cell-based; conditions: FIG. 33, 48 hours
Description: as §2

[12] = tested on: prostate cancer cell lines; experiment: WST-1 cell proliferation in multiple prostate cancer cell lines; type: cell-based; conditions: WST-1 Kit
Description: as §1

LNCaP cells [13] = experiment: Colony assay using LnCaP cells; type: cell-based; conditions: FIG. 17B, treatment for 7 days
Description: as §3, with “FIG. 17A-17B.” for “FIG. 20A-20B.”, “(FIG. 17A)” for “(FIG. 20A)”, “of LNCaP” for “of C4-2B”, “(FIG. 17B)” for “(FIG. 20B)”, “using LnCaP” for “using C4-2B”

C4-2B cells [14] = experiment: WST cell proliferation assay in C4-2B cells; type: cell-based; conditions: FIG. 22, 6 days
Description: FIG. 22A-22B. WST cell proliferation assay of indicated compounds in C4-2B cells. Cells were treated for 6 days. […] (FIG. 19B) Effects of indicated compounds on EZH2, AR, and FOXA1 by western blot at 1 μM in C4-2B cells.
as §1

C4-2B cells [15] = experiment: Live imaging cell proliferation of C4-2B cells; type: cell-based; conditions: FIG. 20A, monitored over 168 hours
Text: FIG. 20A-20B. (FIG. 20A) Live imaging cell proliferation of C4-2B cells. […] DMSO is set as the negative control. […] (FIG. 20B) Colony assays using C4-2B cells after treatment with the indicated compounds for 7 days.

EZH2 [16] = experiment: Western blot of EZH2 in SU-DHL6 cells; type: cell-based; conditions: FIG. 33, 48 hours
22Rv1 cells [17] = experiment: WST cell viability assay in 22Rv1 cells; type: cell-based
Description: as §1

SU-DHL6 cells = experiment: WST cell viability assay in SU-DHL6 cells; type: cell-based
Description: as §1

SU-DHL4 cells = experiment: WST cell viability assay in SU-DHL4 cells; type: cell-based; conditions: for IC50: Homo sapiens, variable slope, read-out: IC50 (best-fit value)
Description: as §1

LNCaP cells [18] = experiment: Imaging of LnCaP cells (cell density); type: cell-based; conditions: FIG. 18, 12 days' treatment
Text: FIG. 18. Imaging of LnCaP cells after 12 days' treatment with the indicated compounds.

SUZ12 [19] = experiment: Western blot of SUZ12 in C4-2B cells; type: cell-based; conditions: FIG. 14, 10 μM for 6 days
EZH2 [20] = molecular target: T1, EZH2; experiment: Ubiquitination of EZH2 in C4-2B cells with MG132; type: cell-based; conditions: FIG. 15B, plus proteasome inhibitor MG132
[21] = Pharmacokinetics in mice, IP cassette dosing, plasma LC/MS/MS; type: in vivo, C57Bl/6 mouse; conditions: mouse, C57Bl/6 mice, 4 mg/kg IP, cassette format
Description: FIG. 35. Pharmacokinetics of indicated compounds. Compounds were administered to C57Bl/6 mouse mice at 4 mg/kg using intraperitoneal (IP) injection in cassette format. Plasma was collected at the indicated time points and analyzed by LC/MS/MS using standard methods.
For assessing pharmacokinetics, compounds were administered to C57Bl/6 mouse mice at 4 mg/kg using intraperitoneal (IP) injection in cassette format. Plasma was collected at the indicated time points and analyzed by LC/MS/MS using standard methods.

SUZ12 [22] = experiment: Western blot of SUZ12 in SU-DHL6 cells; type: cell-based; conditions: FIG. 33, 48 hours
Description: as §2

EZH2 [23] = molecular target: T1, EZH2; experiment: Western blot of EZH2 protein in C4-2B cells
22Rv1 cells [24] = experiment: Cell titer glo cell viability assay in 22Rv1 cells; type: cell-based
[25] = Table 9, WST1 within 1 μM on SU-DHL4 (as titled)

T1 sequence (Q15910 whole entry): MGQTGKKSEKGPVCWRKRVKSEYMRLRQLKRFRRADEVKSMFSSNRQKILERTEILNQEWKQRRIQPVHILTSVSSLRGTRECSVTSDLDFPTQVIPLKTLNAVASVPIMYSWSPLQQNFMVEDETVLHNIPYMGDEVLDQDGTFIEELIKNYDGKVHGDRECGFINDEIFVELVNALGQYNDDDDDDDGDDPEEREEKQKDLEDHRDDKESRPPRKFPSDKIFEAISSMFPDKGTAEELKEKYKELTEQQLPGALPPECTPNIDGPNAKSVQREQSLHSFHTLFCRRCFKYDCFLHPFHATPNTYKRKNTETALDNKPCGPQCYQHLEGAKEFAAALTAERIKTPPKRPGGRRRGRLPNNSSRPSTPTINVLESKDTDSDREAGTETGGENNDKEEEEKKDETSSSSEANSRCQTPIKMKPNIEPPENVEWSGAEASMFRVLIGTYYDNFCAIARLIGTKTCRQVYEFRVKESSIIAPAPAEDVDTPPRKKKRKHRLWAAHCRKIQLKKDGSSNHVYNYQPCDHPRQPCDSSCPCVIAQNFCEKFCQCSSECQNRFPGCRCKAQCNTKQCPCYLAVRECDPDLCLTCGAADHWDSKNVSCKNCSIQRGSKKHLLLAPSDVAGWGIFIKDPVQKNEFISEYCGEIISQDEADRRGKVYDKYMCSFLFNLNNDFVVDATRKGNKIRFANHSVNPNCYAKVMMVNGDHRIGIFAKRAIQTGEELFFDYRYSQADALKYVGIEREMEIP
T1 sequence (Q15022 whole entry partner): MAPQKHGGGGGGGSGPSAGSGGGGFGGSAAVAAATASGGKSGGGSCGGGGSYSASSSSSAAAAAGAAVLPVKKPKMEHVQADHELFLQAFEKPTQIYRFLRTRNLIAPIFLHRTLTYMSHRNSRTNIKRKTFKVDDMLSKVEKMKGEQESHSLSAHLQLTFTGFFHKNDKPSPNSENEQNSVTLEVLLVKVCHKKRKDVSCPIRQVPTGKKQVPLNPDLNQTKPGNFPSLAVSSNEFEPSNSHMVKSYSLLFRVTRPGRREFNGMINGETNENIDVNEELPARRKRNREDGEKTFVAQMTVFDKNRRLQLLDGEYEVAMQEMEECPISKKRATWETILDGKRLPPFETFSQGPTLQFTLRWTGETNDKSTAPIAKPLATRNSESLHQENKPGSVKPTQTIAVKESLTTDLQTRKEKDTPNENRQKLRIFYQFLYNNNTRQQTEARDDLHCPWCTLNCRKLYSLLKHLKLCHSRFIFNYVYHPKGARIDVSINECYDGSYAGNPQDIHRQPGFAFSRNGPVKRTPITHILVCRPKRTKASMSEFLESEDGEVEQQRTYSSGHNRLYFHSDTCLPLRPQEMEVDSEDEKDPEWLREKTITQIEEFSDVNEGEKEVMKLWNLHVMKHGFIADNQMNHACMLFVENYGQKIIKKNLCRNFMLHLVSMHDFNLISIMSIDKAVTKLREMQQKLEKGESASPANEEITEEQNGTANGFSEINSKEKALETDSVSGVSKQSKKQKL
T1 sequence (O75530 whole entry partner): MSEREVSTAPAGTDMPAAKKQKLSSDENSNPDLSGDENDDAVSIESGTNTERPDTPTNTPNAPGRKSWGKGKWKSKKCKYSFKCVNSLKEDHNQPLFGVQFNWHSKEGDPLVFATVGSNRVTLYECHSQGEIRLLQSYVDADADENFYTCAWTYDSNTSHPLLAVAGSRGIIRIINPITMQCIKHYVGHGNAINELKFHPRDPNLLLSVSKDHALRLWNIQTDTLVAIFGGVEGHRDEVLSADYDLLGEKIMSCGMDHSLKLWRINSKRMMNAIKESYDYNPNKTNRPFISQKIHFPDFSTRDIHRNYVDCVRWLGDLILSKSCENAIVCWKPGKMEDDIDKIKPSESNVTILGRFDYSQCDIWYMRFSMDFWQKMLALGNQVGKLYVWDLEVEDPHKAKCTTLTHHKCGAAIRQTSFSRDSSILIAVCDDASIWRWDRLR

Ability to degrade EZH2 with siRNA control (VHL present) (EZH2 [1]; siRNA control lane): able to strongly degrade EZH2
EZH2 protein (western blot) (EZH2 [5]): significant reduction in EZH2
EZH2 protein (western blot) (EZH2 [7]): significant reduction in EZH2
IC50 (22Rv1 cells [17]; Homo sapiens, Table 4, WST1 cell viability with different doses on 22Rv1, read-out: IC50 (best-fit value)): 1.33 µM
IC50 (SU-DHL6 cells; Homo sapiens, SU-DHL-6, Table 7, WST1 test cell viability with higher dose on SU-DHL6, variable slope, read-out: IC50 (best-fit value)): 0.892 µM
IC50 (SU-DHL4 cells; SU-DHL-4, Table 8, WST1 test cell viability within 1 μM on SU-DHL4): 2.5 µM
IC50 (SU-DHL4 cells; SU-DHL-4, Table 9, WST1 test cell viability within 1 μM on SU-DHL4 (as titled)): 0.337 µM
half-life [21]: 3.5 to 6 h
Degrading EZH2 protein at nM doses, versus 2304 (EZH2 [23]; FIG. 10, 24 hours): more effective than 2304
Degradation of EZH2 (EZH2 [23]; FIG. 14, 10 μM for 6 days): strong degradation of EZH2
IC50 (22Rv1 cells [24]; Homo sapiens, Table 5, Cell titer glo test cell viability with different doses on 22Rv1, read-out: IC50 (best-fit value)): 0.692 µM
SMILES: CCN(c1cc(-c2ccc(CN3CCN(C(=O)CCCCCCCCCC(=O)N[C@H](C(=O)N4C[C@H](O)C[C@H]4C(=O)NCc4ccc(-c5scnc5C)cc4)C(C)(C)C)CC3)cc2)cc(C(=O)NCc2c(C)cc(C)[nH]c2=O)c1C)C1CCOCC1 [Compound 6272]
H3K27me3 levels (H3K27me3): reduced H3K27me3 levels
Ability to degrade EZH2 with esiRNA knockdown of VHL (EZH2 [1]; VHL knockdown): inhibition of the ability of active compounds 6272 to degrade EZH2
Cell proliferation by phase object confluence (LNCaP cells [2]): greatest ability to decrease LnCaP proliferation
Inhibition of proliferation (WST) (LNCaP cells [3]; FIG. 19A, LNCaP, 6 days): similarly potent effects on inhibiting the proliferation
Anti-proliferative effect (WST cell viability) (LNCaP cells [3]; FIG. 23, LNCaP, 5 days' treatment, concentration range): greater anti-proliferative effect than EPZ-6438
IC50 (LNCaP cells [3]; Homo sapiens, Table 3, WST1 test cell viability on LNCaP, [Inhibitor] vs. normalized response, read-out: IC50 (best-fit value)): 0.759 µM
Cell density by imaging (C4-2B cells [4]): significant reduction in the cell density
Degradation of EZH2 (EZH2 [6]): significant degradation
Degradation of SUZ12 (SUZ12 [8]): significant degradation
Degradation of EED (EED [9]): significant degradation
Colonies (C4-2B cells [10]): significant reduction in the colonies
Inhibition of cell proliferation versus EPZ-6438 (lymphoma cell lines): more potent and effective at inhibiting cell proliferation than the catalytic EZH2 inhibitor EPZ-6438
Degradation of EED (EED [11]): significant degradation
Inhibition of cell proliferation versus EPZ-6438 [12]: more potent and effective at inhibiting cell proliferation than the catalytic EZH2 inhibitor EPZ-6438
Colonies (LNCaP cells [13]): significant reduction in the colonies
Inhibition of proliferation (WST) (C4-2B cells [14]): similarly potent effects on inhibiting the proliferation
Cell proliferation by phase object confluence (C4-2B cells [15]): decrease C4-2B proliferation
Degradation of EZH2 (EZH2 [16]): significant degradation
Anti-proliferative effect (WST cell viability) (22Rv1 cells [17]; FIG. 24, 22Rv1, 5 days' treatment, concentration range): greater anti-proliferative effect than EPZ-6438
Anti-proliferative effect (WST cell viability) (SU-DHL6 cells; FIG. 30, SU-DHL6, 4 days' treatment): greater anti-proliferative effect than EPZ-6438
Anti-proliferative effect (WST cell viability) at 1 μM (SU-DHL6 cells; FIG. 32, SU-DHL6, 4 days' treatment, 1 μM): greater anti-proliferative effect than EPZ-6438
Anti-proliferative effect (WST cell viability) (SU-DHL4 cells; FIG. 29, SU-DHL4, 4 days' treatment): greater anti-proliferative effect than EPZ-6438
HillSlope (best-fit value) (SU-DHL4 cells; Table 6, WST1 with higher dose on SU-DHL4): −0.093
HillSlope (best-fit value) (SU-DHL4 cells; Table 8, WST1 within 1 μM on SU-DHL4): −0.2858
HillSlope (best-fit value) (SU-DHL4 cells; [25]): −1.235
logIC50 (best-fit value) (SU-DHL4 cells; [25]): −0.4722
Cell density by imaging (LNCaP cells [18]): significant reduction in the cell density
Reduction of PRC2 component SUZ12 (SUZ12 [19]): reduction of PRC2 component SUZ12
Degree of ubiquitination of EZH2 (EZH2 [20]): much greater degree of ubiquitination of EZH2 than the inactive compound 6286
Degradation of SUZ12 (SUZ12 [22]): significant degradation
Anti-proliferative effect (Cell titer glo cell viability) (22Rv1 cells [24]; FIG. 25, 22Rv1, 5 days' treatment, concentration range): greater anti-proliferative effect than EPZ-6438
